Results published in ChEMBL document CHEMBL1141028, “Novel NGF-potentiating diterpenoids from a Brazilian medicinal plant, Ptychopetalum olacoides” (Bioorg Med Chem Lett, 2009).
The source made the active and inactive calls. The calls are words filed in the database; no cut-off is given here.

How the values were obtained:
PC-12 [1] = experiment: Enhancement of neurite outgrowth in rat PC12 cells assessed as morphological changes after 4 days by phase-contrast microscopy in absence of NGF; type: functional, cell-based
PC-12 [2] = experiment: Enhancement of NGF-induced neurite outgrowth in rat PC12 cells assessed as morphological changes after 4 days by phase-contrast microscopy; type: functional, cell-based
PC-12 [3] = experiment: Enhancement of neurite length extending from cell bodies in NGF-mediated rat PC12 cells at 1 uM after 4 days; type: functional
PC-12 [4] = experiment: Enhancement of neurite length extending from cell bodies in NGF-mediated rat PC12 cells at 0.1 uM after 4 days; type: functional
PC-12 [5] = experiment: Enhancement of neurite length extending from cell bodies in NGF-mediated rat PC12 cells at 10 uM after 4 days; type: functional
PC-12 [6] = experiment: Enhancement of neurite length extending from cell bodies in NGF-mediated rat PC12 cells at 50 uM after 4 days; type: functional
PC-12 [7] = experiment: Enhancement of neurite length extending from cell bodies in NGF-mediated rat PC12 cells at 30 uM after 4 days; type: functional
PC-12 [8] = experiment: Enhancement of neurite length extending from cell bodies in NGF-mediated rat PC12 cells after 4 days relative to control; type: functional, cell-based
PC-12 [9] = experiment: Cytotoxicity against rat PC12 cells at 50 uM; type: cell-based; settings: pc-12, 50 µM
PC-12 [10] = experiment: Enhancement of neurite length extending from cell bodies in NGF-mediated rat PC12 cells at 0.1 to 50 uM after 4 days; type: functional, cell-based
PC-12 [11] = experiment: Enhancement of NGF-induced neurite outgrowth in rat PC12 cells assessed as morphological changes at 0.1 to 50 uM after 4 days by phase-contrast microscopy; type: functional, cell-based

With CC1=CCC[C@@H]2[C@@](C)(CCc3ccoc3)[C@H](C)[C@H](O)[C@H](O)[C@@]12C the Activity (PC-12 [1]) was “inactive”, the Activity (PC-12 [2]) was “Dose-dependent effect” and the Activity (PC-12 [3]) was 115.8 um. It also gave an Activity (PC-12 [4]) of 104 um, an Activity (PC-12 [5]) of 173.1 um and an Activity (PC-12 [6]) of 205.3 um. The Activity (PC-12 [7]) was 201.5 um and the Activity (PC-12 [8]) was “Dose-dependent effect”.
For CC1=CCC[C@@H]2[C@@](CO)(CCc3ccoc3)[C@H](C)[C@H](O)C[C@@]12C, the Activity (PC-12 [1]) was “inactive”, the Activity (PC-12 [2]) was “Dose-dependent effect” and the Activity (PC-12 [3]) was 101.7 um. The Activity (PC-12 [4]) was 95.3 um, the Activity (PC-12 [5]) was 106.5 um and the Activity (PC-12 [9]) was “Toxic”. It also gave an Activity (PC-12 [7]) of 236.3 um.
CC1=CCC[C@@H]2[C@@](C)(CCc3ccoc3)[C@H](C)[C@@H]3OC(C)(C)O[C@@H]3[C@@]12C was tested, and the Activity (PC-12 [10]) was “inactive”.
CC1=CCC[C@@H]2[C@@](C)(CCC3=CC(=O)OC3)[C@H](C)[C@H](O)C[C@@]12C was tested, and the Activity (PC-12 [1]) was “inactive”, the Activity (PC-12 [11]) was “inactive” and the Activity (PC-12 [10]) was “inactive”.
With COC1C=C(CC[C@@]2(C)[C@H](C)[C@H](O)[C@H](O)[C@@]3(C)C(C)=CCC[C@H]23)C(=O)O1 (some centres not stated) the Activity (PC-12 [1]) was “inactive”, the Activity (PC-12 [11]) was “inactive” and the Activity (PC-12 [10]) was “inactive”.
